# Read-outs that look alike come from different tables or passages of the source.
# What was measured:
# nAChRs = test: whole-cell patch clamp recordings of nicotine-induced currents in medial habenula neurons in brain slices; assay type: cell-based, mouse; conditions: for EC50: 250 ms nicotine pulse, 0.1 μM to 300 μM, read-out: EC50 of nicotine-induced current
# [1] = test system: primary cortical cultures
# pain sensitivity = conditions: lynx1 null mutant mice vs wild-type
# striatum = conditions: drinking water from 8 months of age for 10 months
# motor learning = conditions: 200 μg/ml nicotine in 2% saccharin
# [2] = test system: primary cortical cultures; remark: listed apart in the source
# Experimental: Cultured cells were then loaded with the Ca^2+ sensitive indicator fluo-3 and fluorescence measurements were obtained (FIG. 5A). […] Acute responses to nicotine were measured using fluorescence levels in real time.
# seizure activity = conditions: lynx1 null mutant mice vs wt; single injection of nicotine
# alph4beta2 nAChRs = molecular target: T1, alph4beta2 nAChRs (Homo sapiens, UniProt P17787+P43681); test: voltage-clamp recordings of xenopus oocytes heterologously expressing nAChR and lynx cRNA; assay type: cell-based; conditions: coexpressed with a4b2 nAChRs in oocytes, 1 mM ACh; for desensitization of ACh-evoked currents during agonist application: 20 sec; for fast time constant of desensitization / slow time constant of desensitization (plateau phase): two-exponential fit
# T1 construct: expressed in transfected cells; host or cells: Xenopus oocytes injected with cRNA
# T1 sequence (P43681 29-627 limits assumed): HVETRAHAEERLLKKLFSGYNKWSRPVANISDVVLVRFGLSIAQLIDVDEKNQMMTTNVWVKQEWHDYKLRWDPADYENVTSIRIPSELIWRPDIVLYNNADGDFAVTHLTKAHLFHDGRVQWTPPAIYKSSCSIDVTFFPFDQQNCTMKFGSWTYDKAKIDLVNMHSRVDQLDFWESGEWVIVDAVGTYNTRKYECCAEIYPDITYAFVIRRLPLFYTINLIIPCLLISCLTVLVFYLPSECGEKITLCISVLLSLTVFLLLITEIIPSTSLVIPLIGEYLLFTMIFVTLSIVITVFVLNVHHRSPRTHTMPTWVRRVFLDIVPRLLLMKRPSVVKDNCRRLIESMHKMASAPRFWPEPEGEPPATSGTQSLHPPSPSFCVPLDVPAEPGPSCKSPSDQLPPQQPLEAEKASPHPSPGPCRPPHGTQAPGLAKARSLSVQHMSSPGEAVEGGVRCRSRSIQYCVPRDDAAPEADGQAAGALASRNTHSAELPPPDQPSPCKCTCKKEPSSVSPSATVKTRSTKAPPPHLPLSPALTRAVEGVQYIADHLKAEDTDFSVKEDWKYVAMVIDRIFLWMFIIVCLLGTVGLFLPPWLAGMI
# T1 sequence (P17787 26-502): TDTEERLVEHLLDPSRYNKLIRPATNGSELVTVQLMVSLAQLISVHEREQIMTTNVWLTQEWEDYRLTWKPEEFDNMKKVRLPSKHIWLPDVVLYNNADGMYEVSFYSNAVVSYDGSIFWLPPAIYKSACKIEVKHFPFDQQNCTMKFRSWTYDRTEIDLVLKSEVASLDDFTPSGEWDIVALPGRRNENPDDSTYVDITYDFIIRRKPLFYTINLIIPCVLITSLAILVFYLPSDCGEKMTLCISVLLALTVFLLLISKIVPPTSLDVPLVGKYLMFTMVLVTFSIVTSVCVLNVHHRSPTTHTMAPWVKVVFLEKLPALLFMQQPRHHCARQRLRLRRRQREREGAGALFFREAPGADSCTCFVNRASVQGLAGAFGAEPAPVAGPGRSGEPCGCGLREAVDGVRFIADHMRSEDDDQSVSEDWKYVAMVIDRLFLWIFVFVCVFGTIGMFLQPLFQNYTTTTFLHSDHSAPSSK
# Experimental: (§1) The inward currents were evoked by 20 sec periods of superfusion (horizontal calibration bar) with external saline containing 1 mM ACh. […] B and C. The differences in desensitization are shown with bar graphs. As described in (2), two exponentials equations were fitted to the desensitization currents during ACh application. Using these equations, fast (B) and slow (C) time constants were calculated and the average values of these constants for ACh responses are shown in B and C.
# as §1, with “C).” for “C.”, “shown.” for “are shown in B and C.”
# alpha4beta2 nAChRs = molecular target: T2, alpha4beta2 nAChRs (Homo sapiens, UniProt P17787+P43681); test: co-immunoprecipitation in transiently transfected HEK293 cells; assay type: binding; conditions: IP with nAChR antibodies, Western blot
# T2 construct: expressed in transfected cells; host or cells: HEK293
# T2 sequence (P43681 29-627 limits assumed): as the sequence (P43681 29-627 limits assumed) above
# T2 sequence (P17787 26-502): as the sequence (P17787 26-502) above
molecule,measurement,setting,value
CNC1(C)C2CCC(C2)C1(C)C (centres unmarked) [mecamylamine],effect on nicotine-induced currents,"nAChRs; nAChR antagonist, recovered during wash out",blocked
CN1CCCC1c1cccnc1 (centres unmarked) [nicotine],neuroprotection against glutamate-mediated cell death,"[1]; lynx1−/− neurons, nicotine pretreatment, glutamate",completely abolished
same,neuroprotection against glutamate-mediated cell death,"[1]; wild-type neurons, 1 hour pretreatment of nicotine, 100 μM glutamate",protects wild-type neurons from cell death
same,"antinociceptive effect of nicotine, time on a hot-plate",pain sensitivity,enhanced sensitivity
same,"vacuolation in the striatum, nicotine solution vs saccharin",striatum; lynx1−/− mice,significant increase in vacuolation
same,"vacuolation in the striatum, nicotine/saccharin vs saccharin",striatum; wild-type mice,no significant differences in vacuolation
same,rotarod performance relative to similarly treated wild-type mice,"motor learning; lynx1−/− mice, 2nd day of training",significant improvement in rotarod performance
same,rotarod performance vs saccharin-treated mice,"motor learning; wild-type mice, at least 6 weeks",this difference was not significant
same,"acute Ca2+ response, fluorescence in real time",[2]; lynx1−/− cultures,significant increase
same,increase in fluorescence (steady state Ca2+ levels),"[2]; lynx1−/− cultures, 10 μm nicotine",2 fold
same,"acute Ca2+ response, fluorescence in real time",[2]; wild-type cultures,not
same,change in steady state Ca2+ levels (fluorescence),"[2]; wild-type cultures, 10 μm nicotine",did not result in a significant change
same,change in fluorescence in dose-response measurements,"[2]; wild-type cultures, any of the concentrations tested",no change in fluorescence
lynx3: lynx family polypeptide with modulatory capacity on nAChRs; mouse lynx3 (SEQ ID NO:7),desensitization of ACh-evoked currents during agonist application,alph4beta2 nAChRs,significantly faster desensitization
same,fast time constant of desensitization,alph4beta2 nAChRs,significantly faster
same,slow time constant of desensitization (plateau phase),alph4beta2 nAChRs,remained the same
same,association with nAChRs in co-immunoprecipitation,alpha4beta2 nAChRs,stable associations
"ly6H: a lynx-related gene, a related family member, used as comparator (protein) LWCQDCTLANSSHCAPKQCQPTDTVCASVRITDPSSSRKDHSVNKMCASSCDFVKRHFFSDYLMGFINSGILKVDVDCCEKDLCN",desensitization of ACh-evoked currents during agonist application,alph4beta2 nAChRs,no effect on desensitization
same,fast time constant of desensitization,alph4beta2 nAChRs,unaffected
same,slow time constant of desensitization (plateau phase),alph4beta2 nAChRs,unaffected
same,association with nAChRs in co-immunoprecipitation,alpha4beta2 nAChRs,not
"lynx2: lynx family polypeptide related to lynx1; mouse lynx2 (SEQ ID NO:5) (protein, listed as Mus musculus) MWVLGIAATFCGLFWLPGLALQIQCYQCEEFQLNNDCSSPEFIVNCTVNVQDMCQKEVMEQSAGIMYRKSCASSAACLIASAGYQSFCSPGKLNSVCISCCNTPLCNGPRPKKRGSSASAIRPGLLTTLLFFHLALCLAHC",desensitization of ACh-evoked currents during agonist application,alph4beta2 nAChRs,significantly faster desensitization
same,fast time constant of desensitization,alph4beta2 nAChRs,significantly faster
same,slow time constant of desensitization (plateau phase),alph4beta2 nAChRs,remained the same
same,association with nAChRs in co-immunoprecipitation,alpha4beta2 nAChRs,stable associations

# Source: patent publication US20080221013A1, “Neurobiological compositions” (priority 2006, published 2008)
